According to publication PMC9975698, “Hyperoside alleviates toxicity of β-amyloid via endoplasmic reticulum-mitochondrial calcium signal transduction cascade in APP/PS1 double transgenic Alzheimer's disease mice” (Redox Biology, 2023):

Tests used:
APP/PS1 mice [1] = assay: Rotarod test; assay type: in vivo; conditions: HYP nasal, every 3 days, 8 weeks
Experimental: All animal care and experimental procedures were performed in accordance with the “Institutional Animal Care and User Committee Guidelines” of the Macau University of Science and Technology. APP/PSEN1 (APP/PS1) mice (N000175) were purchased from the Nanjing Institute of Biomedical Sciences, Nanjing University, China, weighing 25 ± 5 g. The animals were housed in a temperature-controlled room with a 12 h light/dark cycle and given ad libitum food and water. Male mice were randomly divided into the following 6 experimental groups. (a) wild-type group (n = 6), (b) APP/PS1 group (n = 6), (c) HYP (20 mg/kg group) (n = 7), (d) HYP (40 mg/kg) group (n = 8), (e) HYP (80 mg/kg) group (n = 8) and (f) memantine (MEM) (10 mg/kg) positive control group (n = 8). HYP was dissolved in the solvent containing 10% DMSO, 40% PEG300 and 5% Tween-80 in PBS, and administrated via nasal injection for every 3 days with a volume of 0.5 μL/g of body weight for 8 consecutive weeks. The rotarod test was used to monitor motor coordination. The test consisted of placing the animal on a rotating rod with a rotational speed of 25 rpm (Yuyan, Shanghai, China) until the animal fell to the ground and the movement time was recorded. The test was performed three times with an interval of 300 s, and the mean of the test results were calculated.

HT22 cells = assay: Real time mitochondrial membrane potential (rhodamine 123); assay type: cell-based; conditions: rhodamine 123-stained HT22 cells, Aβ 30 μM with HYP 20, 40, 80 μM
Description: Disruption of RyR2 regulation in the ER mediates the most important signal transduction cascade responses associated with AD [24]. RyR2 channels are implicated in many cellular functions, particularly mitochondrial metabolism. As confirmed in previous section (Fig. 9G), the expression of mRNA for MCU was decreased in RyR2 knockdown cells. […] Therefore, the role of HYP in regulating Aβ-induced ER-mitochondrial Ca^2+ homeostasis and apoptosis were further validated. […] It was reported that mitochondrial calcium level affects cellular energy by activating oxidative metabolism, mitochondrial respiration and ATP synthesis. […] To further verify the result, the membrane potential was stained with a more sensitive dye, JC-1 (Fig. 10C). JC-1 is a dual-emission mitochondrial membrane potential sensing dye, which is accumulated and aggregated in polarized (normal) mitochondria with excitation and emission in the red spectrum at ∼590 nm. […] It is noteworthy that increased mitochondrial calcium influx can trigger apoptosis. To further explore the protective role of HYP in Aβ -induced neuronal cell death, HT22 cells were co-treated with Aβ aggregates and HYP for 24 h. The expression level of selected apoptotic markers including Bcl-2, Bax and cyto-c were detected by Western blot (Fig. 10E).

APP/PS1 mice [2] = assay: Y-maze test; assay type: in vivo; conditions: HYP 20/40/80 mg/kg nasal, every 3 days, after 7 weeks
Experimental: All animal care and experimental procedures were performed in accordance with the “Institutional Animal Care and User Committee Guidelines” of the Macau University of Science and Technology. APP/PSEN1 (APP/PS1) mice (N000175) were purchased from the Nanjing Institute of Biomedical Sciences, Nanjing University, China, weighing 25 ± 5 g. The animals were housed in a temperature-controlled room with a 12 h light/dark cycle and given ad libitum food and water. Male mice were randomly divided into the following 6 experimental groups. (a) wild-type group (n = 6), (b) APP/PS1 group (n = 6), (c) HYP (20 mg/kg group) (n = 7), (d) HYP (40 mg/kg) group (n = 8), (e) HYP (80 mg/kg) group (n = 8) and (f) memantine (MEM) (10 mg/kg) positive control group (n = 8). HYP was dissolved in the solvent containing 10% DMSO, 40% PEG300 and 5% Tween-80 in PBS, and administrated via nasal injection for every 3 days with a volume of 0.5 μL/g of body weight for 8 consecutive weeks. Y-maze tests assess cognitive changes, short-term spatial working memory (by spontaneous alternation), and exploratory activity (by total number of arm choices) of mice. […] The number of total arm choices and sequence of arm choices were recorded. The percentage of alternation can be calculated as the ratio of total number of alternations / the number of arms entered x 100%. […]

O=c1c(O[C@@H]2O[C@H](CO)[C@H](O)[C@H](O)[C@H]2O)c(-c2ccc(O)c(O)c2)oc2cc(O)cc(O)c12 [HYP, Quercetin-3-O-β-D-galactopyranoside]
motor ability (time retained on the rotating rod) (APP/PS1 mice [1]): improved after HYP treatment | mitochondrial membrane potential, real time (HT22 cells): attenuated the decrease of membrane potential triggered by Aβ | spatial working memory (Y-maze alternation) (APP/PS1 mice [2]): resumed to a level comparable to WT mice group
